Data on six compounds can be found in publication PMC9036659, “Boron-containing capsaicinoids” (RSC Advances, 2021).

By MIC90 is commonly meant the lowest concentration that inhibits either 90% of growth or 90% of the strains tested, depending on the study. Usually IC50 stands for the concentration that gives 50% inhibition.

What all share (type): cell-based
The test system of data set [1] is Staphylococcus warneri (ATCC 17917). Kind of data set: Antimicrobial assay, S. warneri (OD600). The settings on record: for MIC90 / IC50: Staphylococcus warneri; for MIC90: read-out: S. warneri MIC90; for IC50: read-out: S. warneri IC50. The procedure:
(§1) The microorganisms (methicillin-resistant S. aureus MRSA 310, vancomycin-resistant E. faecium VRE 379, S. warneri (ATCC 17917), P. vulgaris (ATCC 12454), P. aeruginosa (ATCC 14210), and C. albicans (ATCC 14035)) were grown overnight on agar media. The following day the cultures were transferred into 0.9% saline water into a sterile glass tube. Using the McFarland reader, the turbidity was determined and further diluted into their respective media. The pure compounds were tested at seven different concentrations ranging from 2 to 128 μg mL^−1 in triplicate. Samples were plated into 96 well plates (10 μL in 20% DMSO) and then diluted pathogen (90 μL) was pipetted into the pre-prepared sample plates yielding 5 × 10^5 cfu mL^−1 with a final volume of 100 μL. Antibiotics that are active against specific pathogens were used as positive controls. The plates were incubated into a 37 °C incubator for 22 h. Growth of S. warneri. P. vulgaris, P. aeruginosa and C. albicans were measured by reading optical density (OD600), or in the case of slow growing microorganisms (MRSA and VRE), PrestoBlue was used to assess metabolic activity by measuring fluorescence (535–560)/(590–615) (excitation/emission) using a Thermo Scientific Varioskan Flash plate reader at time zero and then again after incubation of the plates for 22 h at 37 °C. After subtracting the time zero OD600 from the final reading, the percentages of microorganism survival relative to vehicle control wells were calculated. […]
(§2) Antimicrobial Assay Data Growth of S. warneri. P. vulgaris, P. aeruginosa and C. albicans were measured by reading optical density (OD600), or in the case of slow growing microorganisms (MRSA and VRE), PrestoBlue was used to assess metabolic activity by measuring fluorescence (535-560)⁄(590-615) (excitation/emission) using a Thermo Scientific Varioskan Flash plate reader at time zero and then again after incubation of the plates for 22 h at 37 °C. After subtracting the time zero OD600 from the final reading, the percentages of microorganism survival relative to vehicle control wells were calculated. […]

The test system of data set [2] is human breast adenocarcinoma cells (ATCC HTB-26 MDA-MB 231). Kind of data set: Cytotoxicity assay (Alamar blue), HTB-26. The settings on record: for IC50: Homo sapiens, HTB26, 72 h incubation, average ± SD, Inactive = inhibition above 300 μM, read-out: IC50 HTB (cancer cell line). The procedure:
(§3) The cells (human foreskin BJ fibroblast cells (ATCC CRL-2522), green monkey kidney cells Vero (ATCC CCL-81), human breast adenocarcinoma cells (ATCC HTB-26 MDA-MB 231), human breast adenocarcinoma cells (MCF7 ATCC HTB-22), and human colorectal carcinoma cells (HCT116 ATCC CCL-247)) were grown to 80% confluency, the cells were counted, diluted, and plated into treated 96-well cell culture plates. The BJ fibroblast and Vero cells were plated at a cell density of 10 000 cells per well and the HTB26, HCT116 and MCF7 cells were plated at cell density of 5000 cells per well in 90 μL of respective growth medium (without the addition of antibiotics) and incubated for 24 h to allow cells to adhere to the plates before treatment. Pure compounds were tested in triplicate in serial dilutions of seven concentrations ranging from 2 to 128 μg mL^−1 per well (final well volume of 100 μL, 1% DMSO per well). Each of the cell lines were incubated at 37 °C in a humidified atmosphere of 5% CO2; the BJ fibroblast and Vero cells for 24 h and the HTB-26, HCT116 and MCF7 cells for 72 h. Each plate contained four uninoculated positive controls, four untreated negative controls, and one column containing a concentration range for doxorubicin. Alamar blue was added, 24 h after the treatment, and fluorescence was monitored using a Cytation Gen 5 plate reader using 560 nm Ex/590 Em both at time zero and 4 h after Alamar blue addition. The inferred percentage of cell viability relative to vehicle control wells were calculated after subtracting the time zero emission 590 nm measurement from the final reading and the IC50 was determined. […]
(§4) Cytotoxicity Assay Data Alamar blue was added, 24 h after the treatment, and fluorescence was monitored using a Cytation Gen 5 plate reader using 560 nm Ex/590 Em both at time zero and 4 h after Alamar blue addition. The inferred percentage of cell viability relative to vehicle control wells were calculated after subtracting the time zero emission 590 nm measurement from the final reading and the IC50 was determined.
For orientation: Resazurin is reduced to fluorescent resorufin, in cell work by metabolically active cells.

Data set [3] deals with human colorectal carcinoma cells (HCT116 ATCC CCL-247). Kind of data set: Cytotoxicity assay (Alamar blue), HCT116. The settings on record: for IC50: Homo sapiens, HCT-116, 72 h incubation, average ± SD, Inactive = inhibition above 300 μM, read-out: IC50 HCT (cancer cell line). As for the experimental part:
as §3, §4

In data set [4] the test system is human breast adenocarcinoma cells (MCF7 ATCC HTB-22). Kind of data set: Cytotoxicity assay (Alamar blue), MCF7. The settings on record: for IC50: Homo sapiens, MCF7, 72 h incubation, average ± SD, Inactive = inhibition above 300 μM, read-out: IC50 MCF7 (cancer cell line). The procedure:
as §3, §4

Data set [5] concerns methicillin-resistant Staphylococcus aureus MRSA 310. Kind of data set: Antimicrobial assay, MRSA (PrestoBlue fluorescence). The settings on record: for IC50 / MIC90: Staphylococcus aureus, MRSA; for IC50 / MIC90 / MRSA MIC90: 22 h; for IC50: read-out: MRSA IC50; for MIC90: read-out: MRSA MIC90. As for the experimental part: as §1, §2
Data set [6] deals with green monkey kidney cells Vero (ATCC CCL-81). Kind of data set: Cytotoxicity assay (Alamar blue), Vero. The settings on record: for IC50 Vero (normal cell line) / IC50: 24 h incubation, average ± SD, Inactive = inhibition above 300 μM; for IC50: Chlorocebus sabaeus, Vero, read-out: IC50 Vero (normal cell line). The procedure:
as §3, §4

Data set [7] deals with human foreskin BJ fibroblast cells (ATCC CRL-2522). Kind of data set: Cytotoxicity assay (Alamar blue), BJ. The settings on record: for IC50 BJ (normal cell line) / IC50: 24 h incubation, average ± SD, Inactive = inhibition above 300 μM; for IC50: Homo sapiens, Fibroblast, read-out: IC50 BJ (normal cell line). As for the experimental part: as §3, §4
Data set [8] deals with vancomycin-resistant Enterococcus faecium VRE 379. Kind of data set: Antimicrobial assay, VRE (PrestoBlue fluorescence). The settings on record: for MIC90 / IC50 / VRE MIC90 / VRE IC50: 22 h, 37 °C, Inactive = inhibition above 300 μM; for IC50 / VRE IC50: average ± SD. As for the experimental part: as §1, §2
Setting [9] is: ATCC17917, 22 h, 37 °C, Inactive = inhibition above 300 μM.
[10] abbreviates: ATCC17917, 22 h, 37 °C, average ± SD, Inactive = inhibition above 300 μM.
[11] abbreviates: 37 °C, average ± SD, Inactive = inhibition above 300 μM.
Setting [12] is: 37 °C, concentration for 90% growth inhibition, Inactive = inhibition above 300 μM.

Molecules are shown by their SMILES. Converted amounts (≈) assume the structure as drawn. Where two headings read alike, the source gives them in different places. Marks after values point to notes of the source that are not given here.

For the compound `CCCCCC(=O)N(Cc1ccc(OC)c(OC)c1)c1cccc(B2OC(C)(C)C(C)(C)O2)c1` [Compound 25, N-(3,4-dimethoxyphenylmethyl)-N-[3-(4,4,5,5-tetramethyl-1,3,2-dioxaborolan-2-yl)phenyl]-hexanamide], the “antimicrobial activity against S. warneri (in words)” value in data set [1] was “moderate activity”. For the same compound, the MIC90 in data set [1] (setting [9]) was 137 µM (≈ 64 µg/mL); in data set [5] (setting [12]), 137 µM (≈ 64 µg/mL); in data set [8], 274 µM (≈ 128 µg/mL). The IC50 amounted to 78.3 ± 39.8 µM in data set [1] (setting [10]); 76.1 ± 3.4 µM in data set [2]; 137 ± 12 µM in data set [3]; 118 ± 19.5 µM in data set [4]; 70.6 ± 6.6 µM in data set [5] (setting [11]); 91.6 ± 6.8 µM in data set [8]. Besides, in data set [2], the “cytotoxic activity against HTB-26 MDA-MB 231 (in words)” value was “selective but low to moderate activity”. Besides, in data set [3], the “cytotoxic activity against HCT116 (in words)” value is reported as “selective but low to moderate activity”. Moreover, the “cytotoxic activity against MCF7 (in words)” value in data set [4] is on record as “selective but low to moderate activity”. Moreover, in data set [5], the “antimicrobial activity against MRSA (in words)” value is recorded as “moderate activity”. Also, the “IC50 Vero (normal cell line)” value in data set [6] was “Inactive”. Moreover, in data set [7], the “IC50 BJ (normal cell line)” value is reported as “Inactive”. In addition, the “antimicrobial activity against VRE (in words)” value in data set [8] is on record as “moderate activity”.

On to `CCCCCCCCCC(=O)N(Cc1ccc(OC)c(OC)c1)c1cccc(B2OC(C)(C)C(C)(C)O2)c1` [Compound 26, N-(3,4-dimethoxyphenylmethyl)-N-[3-(4,4,5,5-tetramethyl-1,3,2-dioxaborolan-2-yl)phenyl]-decanamide], for which the “S. warneri MIC90” value in data set [1] (22 h, 37 °C, Inactive = inhibition above 300 μM) is “Inactive”. Besides, the “S. warneri IC50” value in data set [1] (22 h, 37 °C, average ± SD, Inactive = inhibition above 300 μM) was “Inactive”. In data set [2], the “cytotoxic activity against HTB-26 MDA-MB 231 (in words)” value was “unselective cytotoxic effects” and the IC50 worked out at 31.5 ± 2.7 µM. Also, in data set [3], the “cytotoxic activity against HCT116 (in words)” value is on record as “unselective cytotoxic effects” and the IC50 stood at 44.3 ± 10.5 µM. Also, in data set [4], the “cytotoxic activity against MCF7 (in words)” value is given as “unselective cytotoxic effects” and the 50% inhibitory concentration (IC50) worked out at 35.7 ± 16.2 µM. The “antimicrobial activity against MRSA (in words)” value in data set [5] was “selectively active”. For the same compound, the IC50 in data set [5] (setting [11]) was 13.2 µM. Also, the MIC90 in data set [5] (setting [12]) is 15.3 µM (≈ 8.01 µg/mL). Besides, in data set [6], the “cytotoxic activity against Vero (in words)” value was “unselective cytotoxic effects” and the half-inhibitory concentration (IC50) was determined as 47.2 ± 6.7 µM. Also, in data set [7], the “cytotoxic activity against BJ (in words)” value is given as “unselective cytotoxic effects” and the half-inhibitory concentration (IC50) turned out to be 38.6 ± 1 µM. In data set [8], the “VRE MIC90” value is “Inactive” and the “VRE IC50” value is listed as “Inactive”.

Take `COc1ccc(CN(C(=O)CCCCB2OC(C)(C)C(C)(C)O2)c2ccccc2)cc1OC` [Compound 31, N-(3,4-dimethoxybenzyl)-N-phenyl-5-(4,4,5,5-tetramethyl-1,3,2-dioxaborolan-2-yl)pentanamide]: in data set [1], the “antimicrobial activity against S. warneri (in words)” value is recorded as “low activity”. The MIC90 in data set [1] (setting [9]) was 282 µM (≈ 128 µg/mL). Moreover, the 50% inhibitory concentration (IC50) in data set [1] (setting [10]) stood at 135 ± 15.4 µM. In data set [2], the “cytotoxic activity against HTB-26 MDA-MB 231 (in words)” value is recorded as “selective but low to moderate activity” and the IC50 came to 58 ± 3.5 µM. In data set [3], the “cytotoxic activity against HCT116 (in words)” value is listed as “selective but low to moderate activity” and the IC50 came out at 126 ± 16.5 µM. In data set [4], the “cytotoxic activity against MCF7 (in words)” value was “selective but low to moderate activity” and the IC50 was found to be 108 ± 30.9 µM. Besides, the “antimicrobial activity against MRSA (in words)” value in data set [5] was “low activity”. The “MRSA MIC90” value in data set [5] (setting [12]) is recorded as “Inactive”. For the same compound, the IC50 in data set [5] (setting [11]) came out at 121 ± 2 µM. Also, the “IC50 Vero (normal cell line)” value in data set [6] was “Inactive”. For the same compound, the “IC50 BJ (normal cell line)” value in data set [7] is given as “Inactive”. For the same compound, in data set [8], the “VRE MIC90” value is recorded as “Inactive” and the “VRE IC50” value is “Inactive”.

Take `COc1cccc2c1C(=O)c1c(O)c3c(c(O)c1C2=O)C[C@@](O)(C(=O)CO)C[C@@H]3O[C@H]1C[C@H](N)[C@H](O)[C@H](C)O1` [Doxorubicin, reference compound]: the half-maximal inhibitory concentration (IC50) in data set [2] is 0.4 ± 0.2 µM; in data set [3], under 0.00012 µM; in data set [4], 0.2 ± 0.2 µM; in data set [6], over 14.7 µM; in data set [7], over 14.7 µM.

For `CO[C@H]1/C=C/O[C@@]2(C)Oc3c(C)c(O)c4c(O)c(c(/C=N/N5CCN(C)CC5)c(O)c4c3C2=O)NC(=O)/C(C)=C\C=C\[C@H](C)[C@H](O)[C@@H](C)[C@@H](O)[C@@H](C)[C@H](OC(C)=O)[C@@H]1C` [Rifampicin, reference compound], in data set [8], the MIC90 turned out to be 2.4 µM (≈ 1.98 µg/mL) and half-maximal inhibition (IC50) required 1.2 ± 0.1 µM.

For the compound `CN[C@H](CC(C)C)C(=O)N[C@H]1C(=O)N[C@@H](CC(N)=O)C(=O)N[C@H]2C(=O)N[C@H]3C(=O)N[C@H](C(=O)N[C@H](C(=O)O)c4cc(O)cc(O)c4-c4cc3ccc4O)[C@H](O)c3ccc(c(Cl)c3)Oc3cc2cc(c3O[C@@H]2O[C@H](CO)[C@@H](O)[C@H](O)[C@H]2O[C@H]2C[C@](C)(N)[C@H](O)[C@H](C)O2)Oc2ccc(cc2Cl)[C@H]1O` [Vancomycin, reference compound], in data set [1] (ATCC17917, 22 h), the IC50 came out at 0.3 ± 0.1 µM and the MIC90 was determined as 0.3 µM (≈ 0.435 µg/mL). Moreover, the “MRSA MIC90” value in data set [5] (setting [12]) is recorded as 1.4^a μM. Further, in data set [5], the concentration for half-maximal inhibition (IC50) stood at 0.5 ± 0.1 µM and the MIC90 was 1.4 µM (≈ 2.03 µg/mL).
